PubChem BioAssay (NCI)
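Where inhibition never reached the appropriate level, the endpoint shown equals the highest concentration tested. Otherwise, values were interpolated linearly from a five-concentration, 48-hour dose response in 96-well plates. TGI denotes the concentration required for complete inhibition of growth.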

How the values were obtained:
Assay in all cases: growth of human tumour cells (NCI), 48 h
786-0 renal = system: 786-0 renal
A498 renal = system: A498 renal
ACHN renal = system: ACHN renal
BT-549 breast = system: BT-549 breast
CAKI-1 renal = system: CAKI-1 renal
COLO 205 colon = system: COLO 205 colon
DU-145 prostate = system: DU-145 prostate
EKVX NSCLC = system: EKVX NSCLC
HCC-2998 colon = system: HCC-2998 colon
HCT-116 colon = system: HCT-116 colon
HCT-15 colon = system: HCT-15 colon
HL-60(TB) leukemia = system: HL-60(TB) leukemia
HOP-62 NSCLC = system: HOP-62 NSCLC
HS 578T breast = system: HS 578T breast
HT29 colon = system: HT29 colon
IGROV1 ovarian = system: IGROV1 ovarian
K-562 leukemia = system: K-562 leukemia
KM12 colon = system: KM12 colon
LOX IMVI melanoma = system: LOX IMVI melanoma
MALME-3M melanoma = system: MALME-3M melanoma
MCF7 breast = system: MCF7 breast
MDA-MB-231 breast = system: MDA-MB-231 breast
MDA-MB-435 = system: MDA-MB-435
MDA-N = system: MDA-N
MOLT-4 leukemia = system: MOLT-4 leukemia
NCI-H226 lung = system: NCI-H226 lung
NCI-H23 lung = system: NCI-H23 lung
NCI-H460 lung = system: NCI-H460 lung
NCI-H522 lung = system: NCI-H522 lung
NCI/ADR-RES ovarian = system: NCI/ADR-RES ovarian
OVCAR-3 ovarian = system: OVCAR-3 ovarian
OVCAR-4 ovarian = system: OVCAR-4 ovarian
OVCAR-5 ovarian = system: OVCAR-5 ovarian
OVCAR-8 ovarian = system: OVCAR-8 ovarian
PC-3 prostate = system: PC-3 prostate
RPMI-8226 leukemia = system: RPMI-8226 leukemia
RXF 393 renal = system: RXF 393 renal
SF-268 CNS = system: SF-268 CNS
SF-295 CNS = system: SF-295 CNS
SK-MEL-2 melanoma = system: SK-MEL-2 melanoma
SK-MEL-28 melanoma = system: SK-MEL-28 melanoma
SK-MEL-5 melanoma = system: SK-MEL-5 melanoma
SN12C renal = system: SN12C renal
SNB-19 CNS = system: SNB-19 CNS
SNB-75 CNS = system: SNB-75 CNS
SR leukemia = system: SR leukemia
SW-620 colon = system: SW-620 colon
T-47D breast = system: T-47D breast
TK-10 renal = system: TK-10 renal
U251 CNS = system: U251 CNS
UACC-257 melanoma = system: UACC-257 melanoma
UACC-62 melanoma = system: UACC-62 melanoma
UO-31 renal = system: UO-31 renal
A549 NSCLC = system: A549 NSCLC
CCRF-CEM leukemia = system: CCRF-CEM leukemia
HOP-92 NSCLC = system: HOP-92 NSCLC
M14 melanoma = system: M14 melanoma
SF-539 CNS = system: SF-539 CNS
SK-OV-3 ovarian = system: SK-OV-3 ovarian

Measured: TGI

CCO[C@@H]1CCC(S(=O)c2ccc(C)cc2)=CO1 (some centres undefined)
> 100 µM: 786-0 renal | A498 renal | ACHN renal | BT-549 breast | CAKI-1 renal | COLO 205 colon | DU-145 prostate | EKVX NSCLC | HCC-2998 colon | HCT-116 colon | HCT-15 colon | HL-60(TB) leukemia | HOP-62 NSCLC | HS 578T breast | HT29 colon | IGROV1 ovarian | K-562 leukemia | KM12 colon | LOX IMVI melanoma | MALME-3M melanoma | MCF7 breast | MDA-MB-231 breast | MDA-MB-435 | MDA-N | MOLT-4 leukemia | NCI-H226 lung | NCI-H23 lung | NCI-H460 lung | NCI-H522 lung | NCI/ADR-RES ovarian | OVCAR-3 ovarian | OVCAR-4 ovarian | OVCAR-5 ovarian | OVCAR-8 ovarian | PC-3 prostate | RPMI-8226 leukemia | RXF 393 renal | SF-268 CNS | SF-295 CNS | SK-MEL-2 melanoma | SK-MEL-28 melanoma | SK-MEL-5 melanoma | SN12C renal | SNB-19 CNS | SNB-75 CNS | SR leukemia | SW-620 colon | T-47D breast | TK-10 renal | U251 CNS | UACC-257 melanoma | UACC-62 melanoma | UO-31 renal

c1ccc(-c2ccc(-c3cc4ccccc4[nH]3)cc2)cc1
> 100 µM: 786-0 renal | A549 NSCLC | ACHN renal | BT-549 breast | CAKI-1 renal | CCRF-CEM leukemia | COLO 205 colon | DU-145 prostate | EKVX NSCLC | HCC-2998 colon | HCT-116 colon | HCT-15 colon | HL-60(TB) leukemia | HOP-62 NSCLC | HOP-92 NSCLC | HS 578T breast | HT29 colon | IGROV1 ovarian | KM12 colon | LOX IMVI melanoma | M14 melanoma | MALME-3M melanoma | MCF7 breast | MDA-MB-231 breast | MDA-MB-435 | MDA-N | MOLT-4 leukemia | NCI-H226 lung | NCI-H23 lung | NCI-H460 lung | NCI-H522 lung | NCI/ADR-RES ovarian | OVCAR-3 ovarian | OVCAR-4 ovarian | OVCAR-5 ovarian | OVCAR-8 ovarian | PC-3 prostate | RPMI-8226 leukemia | SF-268 CNS | SF-295 CNS | SF-539 CNS | SK-MEL-2 melanoma | SK-MEL-28 melanoma | SK-MEL-5 melanoma | SK-OV-3 ovarian | SN12C renal | SNB-19 CNS | SNB-75 CNS | SR leukemia | SW-620 colon | T-47D breast | TK-10 renal | U251 CNS | UACC-257 melanoma | UACC-62 melanoma | UO-31 renal
